Measurements from patent US8716180B2 (priority 2005, dated 2014).
Like-named read-outs stand apart in the source and are kept apart here.

System: GFP genetically modified strain of F. graminearum
Format: in vivo, Fusarium graminearum
Details: seed treatment 5 g a.i./100 kg seeds

Measured: Intensity of F. graminearum (PCR analysis: 0 to 4 scale)

N#Cc1c[nH]cc1-c1cccc2c1OC(F)(F)O2 [Lot B, fludioxonil]
0: Beginning of earing (GS 51), 1st internode | Beginning of earing (GS 51), 2nd internode | Beginning of earing (GS 51), 3rd internode | Beginning of earing (GS 51), 4th internode | Beginning of earing (GS 51), ear | Ear 1-2 cm (GS 31), First internode | Ear 1-2 cm (GS 31), Future internodes and ear | Ear 1-2 cm (GS 31), Second internode | End of tillering (GS 29), Above bottom of the plant (0.5 cm) | End of tillering (GS 29), Bottom of the plant (0.5 cm) | End of tillering (GS 29), Secondary roots | End of tillering (GS 29), primary roots | End of tillering (GS 29), rhizome | Full maturity (GS 94), 1st internode | Full maturity (GS 94), 2nd internode | Full maturity (GS 94), 3rd internode | Full maturity (GS 94), 4th internode | Full maturity (GS 94), 5th internode | Full maturity (GS 94), Ear + grains
